Results taken from patent US9181193B2, “Indenoquinolone compound, preparation method and use thereof” (Second Military Medical University, PLA, priority 2010, dated 2015).

What was measured:
Type in all cases: cell-based
[1] = system: HepG2 (human hepatoma cells); experiment: MTT in vitro anti-tumor activity test, HepG2; settings: MTT assay, HepG2 cells; for HepG2 IC50: 72 h incubation; for HepG2 100 μg/mL IC %: inhibition at 100 μg/mL, 72 h
[2] = system: Colo205 (human colon cancer cells); experiment: MTT in vitro anti-tumor activity test, Colo205; settings: MTT assay, Colo205 cells; for Colo205 IC50: 72 h incubation; for Colo205 100 μg/mL IC %: inhibition at 100 μg/mL, 72 h
[3] = system: MDA-MB-435 (human breast cancer cells); experiment: MTT in vitro anti-tumor activity test, MDA-MB-435; settings: MTT assay, MDA-MB-435 cells; for MDA-MB-435 IC50: 72 h incubation; for MDA-MB-435 100 μg/mL IC %: inhibition at 100 μg/mL, 72 h
[4] = system: A549 (human lung cancer cells); experiment: MTT in vitro anti-tumor activity test, A549; settings: MTT assay, A549 cells; for A549 IC50: 72 h incubation; for A549 100 μg/mL IC %: inhibition at 100 μg/mL, 72 h

In the case of COc1ccc2c(c1)C(=O)c1c-2c(=O)n(CCN2CCCC2)c2ccccc12 [Compound 32], the “HepG2 IC50” value [1] is reported as 6.92 µg/mL, the “HepG2 100 μg/mL IC %” value [1] is reported as 70.03% and the “Colo205 IC50” value [2] is reported as 7.45 µg/mL. For the same compound, the “Colo205 100 μg/mL IC %” value [2] was 92.85%, the “MDA-MB-435 IC50” value [3] was 10.73 µg/mL and the “MDA-MB-435 100 μg/mL IC %” value [3] was 96.48%. For the same compound, the “A549 IC50” value [4] was 8.58 µg/mL and the “A549 100 μg/mL IC %” value [4] was 92.32%.

For COc1ccc2c(c1)C(=O)c1c-2c(=O)n(CCN2CCOCC2)c2ccccc12 [Compound 33], the “HepG2 IC50” value [1] was greater than 100 µg/mL, the “HepG2 100 μg/mL IC %” value [1] was 4.57% and the “Colo205 IC50” value [2] was greater than 100 µg/mL. The “Colo205 100 μg/mL IC %” value [2] was 29.31%, the “MDA-MB-435 IC50” value [3] was greater than 100 µg/mL and the “MDA-MB-435 100 μg/mL IC %” value [3] was 27.19%. The “A549 IC50” value [4] was greater than 100 µg/mL and the “A549 100 μg/mL IC %” value [4] was 40.55%.

COc1ccc2c(c1)C(=O)c1c-2c(=O)n(CCCN(C)C)c2ccccc12 [Compound 34] was tested, and the “HepG2 IC50” value [1] was “≈100 μg/mL”, the “HepG2 100 μg/mL IC %” value [1] was 49.68% and the “Colo205 IC50” value [2] was 6.82 µg/mL. The “Colo205 100 μg/mL IC %” value [2] was 99.54%, the “MDA-MB-435 IC50” value [3] was 19.78 µg/mL and the “MDA-MB-435 100 μg/mL IC %” value [3] was 100%. The “A549 IC50” value [4] was 6.58 µg/mL and the “A549 100 μg/mL IC %” value [4] was 100%.

With CN(C)CCn1c(=O)c2c(c3ccccc31)C(=O)c1cc(Cl)ccc1-2 [Compound 35] the “HepG2 IC50” value [1] was 20.09 µg/mL, the “HepG2 100 μg/mL IC %” value [1] was 100% and the “Colo205 IC50” value [2] was 3.89 µg/mL. The “Colo205 100 μg/mL IC %” value [2] was 100%, the “MDA-MB-435 IC50” value [3] was 3.88 µg/mL and the “MDA-MB-435 100 μg/mL IC %” value [3] was 100%. For the same compound, the “A549 IC50” value [4] was 19.04 µg/mL and the “A549 100 μg/mL IC %” value [4] was 72.15%.

CCN(CC)CCn1c(=O)c2c(c3ccccc31)C(=O)c1cc(Cl)ccc1-2 [Compound 36] was tested, and the “HepG2 IC50” value [1] was 61.69 µg/mL, the “HepG2 100 μg/mL IC %” value [1] was 59.74% and the “Colo205 IC50” value [2] was 28.58 µg/mL. For the same compound, the “Colo205 100 μg/mL IC %” value [2] was 79.84%, the “MDA-MB-435 IC50” value [3] was 28.86 µg/mL and the “MDA-MB-435 100 μg/mL IC %” value [3] was 83.69%. The “A549 IC50” value [4] was 78.22 µg/mL and the “A549 100 μg/mL IC %” value [4] was 61.01%.

For O=C1c2cc(Cl)ccc2-c2c1c1ccccc1n(CCN1CCCC1)c2=O [Compound 37], the “HepG2 IC50” value [1] was greater than 100 µg/mL, the “HepG2 100 μg/mL IC %” value [1] was 24.95% and the “Colo205 IC50” value [2] was 36.76 µg/mL. The “Colo205 100 μg/mL IC %” value [2] was 69.37%, the “MDA-MB-435 IC50” value [3] was 41.01 µg/mL and the “MDA-MB-435 100 μg/mL IC %” value [3] was 70.26%. The “A549 IC50” value [4] was 58.58 µg/mL and the “A549 100 μg/mL IC %” value [4] was 61.64%.

For O=C1c2cc(Cl)ccc2-c2c1c1ccccc1n(CCn1ccnc1)c2=O [Compound 38], the “HepG2 IC50” value [1] was 22.97 µg/mL, the “HepG2 100 μg/mL IC %” value [1] was 88.62% and the “Colo205 IC50” value [2] was 18.77 µg/mL. For the same compound, the “Colo205 100 μg/mL IC %” value [2] was 95.16%, the “MDA-MB-435 IC50” value [3] was 9.37 µg/mL and the “MDA-MB-435 100 μg/mL IC %” value [3] was 100%. For the same compound, the “A549 IC50” value [4] was 13.16 µg/mL and the “A549 100 μg/mL IC %” value [4] was 100%.

In the case of O=C1c2cc(Cl)ccc2-c2c1c1ccccc1n(CCN1CCCCC1)c2=O [Compound 39], the “HepG2 IC50” value [1] is reported as greater than 100 µg/mL, the “HepG2 100 μg/mL IC %” value [1] is reported as 22.39% and the “Colo205 IC50” value [2] is reported as greater than 100 µg/mL. For the same compound, the “Colo205 100 μg/mL IC %” value [2] was 13.12%, the “MDA-MB-435 IC50” value [3] was greater than 100 µg/mL and the “MDA-MB-435 100 μg/mL IC %” value [3] was 14.88%. The “A549 IC50” value [4] was greater than 100 µg/mL and the “A549 100 μg/mL IC %” value [4] was 47.81%.

CN(C)CCCn1c(=O)c2c(c3ccccc31)C(=O)c1cc(Cl)ccc1-2 [Compound 40] was tested, and the “HepG2 IC50” value [1] was 11.51 µg/mL, the “HepG2 100 μg/mL IC %” value [1] was 100% and the “Colo205 IC50” value [2] was 3.16 µg/mL. The “Colo205 100 μg/mL IC %” value [2] was 100%, the “MDA-MB-435 IC50” value [3] was 1.52 µg/mL and the “MDA-MB-435 100 μg/mL IC %” value [3] was 100%. The “A549 IC50” value [4] was 3.25 µg/mL and the “A549 100 μg/mL IC %” value [4] was 86.70%.

COc1ccc2c(c1)C(=O)c1c-2c(=O)n(CCN(C)C)c2ccc(OC)cc12 [Compound 41] was tested, and the “HepG2 IC50” value [1] was 3.36 µg/mL, the “HepG2 100 μg/mL IC %” value [1] was 85.01% and the “Colo205 IC50” value [2] was 0.632 µg/mL. The “Colo205 100 μg/mL IC %” value [2] was 83.62%, the “MDA-MB-435 IC50” value [3] was 0.703 µg/mL and the “MDA-MB-435 100 μg/mL IC %” value [3] was 77.77%. For the same compound, the “A549 IC50” value [4] was “≈100 μg/mL” and the “A549 100 μg/mL IC %” value [4] was 49.27%.
